Numbering of substitutions follows the chain as printed.
Assays:
[1] = target: T1, luxN^S184I/S230P (Vibrio campbellii, UniProt A7MRY4, S184I/S230P); assay: Bioluminescence of V. harveyi XK006 carrying luxN S184I/S230P; type: cell-based, Vibrio harveyi
T1 sequence (A7MRY4 1-849 S184I/S230P): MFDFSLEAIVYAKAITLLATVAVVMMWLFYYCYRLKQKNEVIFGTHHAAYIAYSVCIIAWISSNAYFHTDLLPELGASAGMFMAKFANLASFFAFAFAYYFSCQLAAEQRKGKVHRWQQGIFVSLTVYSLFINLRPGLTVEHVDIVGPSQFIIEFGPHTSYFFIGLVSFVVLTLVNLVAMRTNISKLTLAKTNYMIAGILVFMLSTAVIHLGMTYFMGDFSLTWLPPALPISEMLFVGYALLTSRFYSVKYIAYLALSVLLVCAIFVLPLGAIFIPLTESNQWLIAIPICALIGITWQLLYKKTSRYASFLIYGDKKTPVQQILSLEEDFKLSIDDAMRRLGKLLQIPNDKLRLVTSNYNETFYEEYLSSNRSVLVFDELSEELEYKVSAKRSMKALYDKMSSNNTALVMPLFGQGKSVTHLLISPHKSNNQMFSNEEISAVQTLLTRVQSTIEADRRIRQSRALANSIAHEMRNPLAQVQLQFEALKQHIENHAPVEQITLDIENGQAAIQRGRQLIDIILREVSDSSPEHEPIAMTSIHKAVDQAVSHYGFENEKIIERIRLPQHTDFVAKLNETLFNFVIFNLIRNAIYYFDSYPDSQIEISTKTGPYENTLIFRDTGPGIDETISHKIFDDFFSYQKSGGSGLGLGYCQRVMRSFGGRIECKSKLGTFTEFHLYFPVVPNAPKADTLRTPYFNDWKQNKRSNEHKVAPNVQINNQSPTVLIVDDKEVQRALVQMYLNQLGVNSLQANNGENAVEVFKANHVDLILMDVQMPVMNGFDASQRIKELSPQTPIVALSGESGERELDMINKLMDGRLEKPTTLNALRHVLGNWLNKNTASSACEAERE

[2] = target: T2, LuxN^H210N (Vibrio campbellii, UniProt A7MRY4, H210N); assay: Bioluminescence of V. harveyi XK006 carrying luxN H210N; type: cell-based, Vibrio harveyi; conditions: dose-dependent light production
T2 sequence (A7MRY4 1-849 H210N): T1 sequence (A7MRY4 1-849 S184I/S230P) with I184S, H210N, P230S

[3] = target: T3, LuxN^H210Q (Vibrio campbellii, UniProt A7MRY4, H210Q); assay: Bioluminescence of V. harveyi XK006 carrying luxN H210Q; type: cell-based, Vibrio harveyi; conditions: 1 μM AHL
T3 sequence (A7MRY4 1-849 H210Q): T1 sequence (A7MRY4 1-849 S184I/S230P) with I184S, H210Q, P230S

[4] = target: WT LuxN (Vibrio campbellii, UniProt A7MRY4); conditions: 100 nM AI-1; XK847
[5] = tested on: Kin^off LuxN mutants; assay: Bioluminescence of V. harveyi XK847 harboring Kin^off luxN alleles; type: cell-based, Vibrio harveyi

**Q.** How did the “response (dose-dependent light production)” value [1] turn out when C[C@@H](O)CC(=O)N[C@H]1CCOC1=O [3OH-C4 HSL, N-((R)-3-hydroxybutanoyl)-L-homoserine lactone] was run?
**A.** The value was “most potent agonist”.

**Q.** And the “less sensitivity than for the other two C4 AHLs (3O-C4 HSL, C4 HSL)” value [2]?
**A.** Its value is 10 fold.

**Q.** And the “induction of light production” value [3]?
**A.** The value was 50 fold.

**Q.** And the “increase in light production” value [4]?
**A.** Its value is 1000 fold.

**Q.** What about the “light production / detection” value [5] of the same compound?
**A.** The value was “produced maximal light”.

Reference: PMC4275348 (Molecular microbiology, 2014)
